“Also recorded” adds a separate entry of the source.

Data set [1] relates to C. elegans DA neurons. Put plainly: 6-OHDA assay: GFP signal in DA neurons of Pdat-1::GFP transgenic worms. The conditions noted are these: for Protection against 6-OHDA toxicity (GFP signal in DA neurons): coincubated with 6-OHDA, 10 mM test substance. In kind it is in vivo. The method, then: Synchronized cultures of nematodes were prepared by collecting gravid worms from one or two 100 mm 8P/NA22 plates, washing them 2 times in approximately 10 mls dH2O (2,000 rpm for 2 min), and incubating them in alkaline hypochlorite for 7-10 min. essentially as described (Emmons et al., 1979; Epstein and Shakes, 1995). Following the 17-24 hour incubation in M9 to obtain the synchronized L1's, the worms were washed once in 10 mls dH2O, spread on 8P/NA22 plates and incubated at 24° C. for 25-29 hours. The L3 larvae were collected, washed once or twice in dH2O, and added to the assay mix (to a final OD600 worms of 0.1-0.2) containing 10 mM ascorbic acid containing 10 or 50 mM 6-hydroxydopamine +/−10 mM d-amphetamine or 1 mM imipramine. The assay mix (1-2 mls) was incubated for 1 hour at 24° C., and mixed gently every 15 min. The worms were then washed in 0.5-1 ml dH2O as above and spread on NGM/OP50 plates. The worms were examined and scored 40-80 hours post-6-OHDA exposure on 2% agarose pads, using 2% NaN3 to immobilize them. For electron microscopy, the worms are fixed approximately 60 hours following exposure to 6-OHDA.
Scoring of the CEPs were performed by applying approximately 50-60 worms on the agar pad, and examined under a Zeiss M2 fluorescent dissecting scope. All 4 CEP dendrites were examined in each worm and the GFP fluorescence within the dendrites followed from the nerve ring to the tip of the nose. If any part of the dendrite was absent, the worm was considered to have altered CEPs. The DA neurons were examined in living animals using a Zeiss Axioskop with a planApo 40 and 63× objective and a Zeiss LSM410 confocal laser-scanning microscope.
Briefly, the worms are exposed to the neurotoxin (or any other candidate substance) dissolved in a liquid suspension prior to being replated on a solid plate.
Exposure to toxins is carried out by transferring the worms to a solution of water containing 10 mM Ascorbic Acid and 10-50 mM 6OHDA in a final volume of 600 μl. The worms are incubated for 1 hour at 22-24° C. with mixing in silica coated tubes. The exposing is stopped by dilution with 1 ml of water. The tube is then pulsed at 2000 rpm for 2 minutes, resuspended in water and the worms are spread on N6M plates ([…]) coated with OP50 E. coli, which the worms feed on.

In data set [2] the target is T1, CeDAT (Caenorhabditis elegans, UniProt Q03614).
T1 sequence (Q03614 1-615): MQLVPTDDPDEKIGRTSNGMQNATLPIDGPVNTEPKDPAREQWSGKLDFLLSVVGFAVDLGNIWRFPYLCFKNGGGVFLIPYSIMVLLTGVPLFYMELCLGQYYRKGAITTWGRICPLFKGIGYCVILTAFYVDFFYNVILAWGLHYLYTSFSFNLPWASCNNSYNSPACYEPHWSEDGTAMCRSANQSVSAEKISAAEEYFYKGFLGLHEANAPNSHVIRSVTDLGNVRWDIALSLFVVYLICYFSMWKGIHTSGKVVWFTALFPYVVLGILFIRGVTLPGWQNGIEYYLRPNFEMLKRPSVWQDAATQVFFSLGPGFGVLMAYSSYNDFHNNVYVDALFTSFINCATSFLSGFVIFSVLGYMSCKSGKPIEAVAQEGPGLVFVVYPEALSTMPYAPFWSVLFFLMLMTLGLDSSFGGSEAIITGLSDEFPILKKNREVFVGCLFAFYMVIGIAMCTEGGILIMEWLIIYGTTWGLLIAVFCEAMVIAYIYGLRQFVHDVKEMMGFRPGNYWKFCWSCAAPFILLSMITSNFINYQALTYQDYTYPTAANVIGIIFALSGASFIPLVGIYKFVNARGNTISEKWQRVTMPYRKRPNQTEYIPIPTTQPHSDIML
Conditions: mammalian cells expressing CeDAT, cited from earlier work; for Sensitivity of CeDAT-mediated DA transport to antagonists/substrates: potencies comparable to human DAT.

Data set [3] concerns ASI chemosensory neurons. Kind of data set: 6-OHDA exposure of ASI chemosensory neurons with or without transferred DAT-1. In kind it is in vivo, C. elegans. The source says: FIGS. 6A, 6B, 6C & 6D. Transfer of the DAT gene product sensitizes non-DA neurons to 6-OHDA. (FIG. 6A), ASI chemosensory neurons made transgenic for a PDAF-7::GFP reporter to reveal these cells and their processes. (FIG. 6B), Worms in FIG. 6A treated with 6-OHDA. […] (FIG. 6C), A transgenic line where PDAF7::DAT1:GFP translational fusion is expressed in the ASI neurons, brining DAT-protein to these cells. (FIG. 6D), Animals in C, exposed to 6-OHDA.

For `CN(C)CCCN1c2ccccc2CCc2ccccc21` [imipramine], the “Protection against 6-OHDA toxicity (GFP signal in DA neurons)” value in data set [1] is reported as “prevents visible evidence of 6-OHDA toxicity”. Moreover, the “Sensitivity of CeDAT-mediated DA transport to antagonists/substrates” value (“Sensitivity … to antagonists/substrates” for short) in data set [2] is “inhibited”.

Turning to `NCCc1cc(O)c(O)cc1O` [6-OHDA, 6-hydroxydopamine], in data set [1] (10 mM 6-OHDA for 1 hr, visualized 72 hrs later via confocal microscopy), the “Effect of 6-OHDA on GFP signal in DA neurons” value is “various stages of apparent degeneration are evident”. In addition, the “Effect of 6-OHDA on DA neurons / reporter expression” value in data set [1] (10-50 mM 6-OHDA, 1 hour exposure, general statements) was “selectively degraded; also recorded: loss of reporter expression”. Moreover, the “Neuronal sensitivity to 6-OHDA as a function of time of exposure, dat-1 deletion strain” value in data set [1] (dat-1 mutant line (FIG. 5E)) is reported as “protected”. Further, the “Effect of 6-OHDA on GFP signal in dat-1 deleted strain” value in data set [1] (reporter transgenic line produced in a dat-1 deleted strain (FIG. 5D)) is “failure of toxin to effect loss of GFP signal”. Also, in data set [1] (wildtype reporter line, CEP neurons (FIG. 5E)), the “Neuronal sensitivity to 6-OHDA as a function of time of exposure” value is listed as “time dependent loss of CEP neurons”. Further, the “Effect of 6-OHDA on ASI neurons expressing DAT-1” value in data set [3] (PDAF7::DAT1:GFP translational fusion line (FIG. 6D)) was “conferred 6-OHDA sensitivity”. In data set [3] (PDAF-7::GFP reporter line (FIG. 6B)), the “Effect of 6-OHDA on ASI neurons lacking DAT-1” value is “little or no effect”.

As to `CNCCC(Oc1ccccc1OC)c1ccccc1` (stereo not shown) [nisoxetine], the “Sensitivity … to antagonists/substrates” value in data set [2] is recorded as “inhibited”.

For `C[C@H](N)Cc1ccccc1` [amphetamine, d-amphetamine], the “Protection against 6-OHDA toxicity (GFP signal in DA neurons)” value in data set [1] is “prevents visible evidence of 6-OHDA toxicity”. Further, the “Sensitivity … to antagonists/substrates” value in data set [2] is “sensitive”.

As usually defined, the Km is the concentration of substrate that gives half-maximal velocity. Turning to `NCCc1ccc(O)c(O)c1` [DA, Dopamine], the Km in data set [2] (read-out: Km of Na+- and Cl--dependent DA transport) was 1.2 µM.

Source of the values: patent publication US7531713B2, “Assay for toxin induced neuronal degeneration and viability in C. elegans” (Vanderbilt University, priority 2001, dated 2009).
